In PubChem BioAssay (NCI) one finds GI50 and TGI data, which are given here for seven compounds.

Among the test systems are HOP-62 NSCLC; SK-MEL-5 melanoma; NCI-H460 lung; EKVX NSCLC; SK-OV-3 ovarian; RXF 393 renal; KM12 colon; K-562 leukemia; RPMI-8226 leukemia; BT-549 breast.
Assay in all cases: growth of human tumour cells (NCI), 48 h

Several values for one entry are separate records, joined by “and”; a condition that tells them apart may be missing. Equal values may be shown once.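 Growth conditions: 96-well plates. Treatment: test compound, 48 hours, 5 concentrations. Analysis: linear interpolation between bracketing concentrations; unreached endpoints set to highest concentration. GI50 = concentration required for 50% inhibition of growth. At the TGI there is no net growth.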

For `CC1=C(C(=O)Nc2ccc3[nH]ncc3c2)C(c2ccc(F)cc2)N=C(c2ccc(C(F)(F)F)nc2)N1` (centres undefined), the GI50 is 10.1 µM in the test with HOP-62 NSCLC; 7.45 µM in the test on SK-MEL-5 melanoma; 11.8 µM with NCI-H460 lung; 6.19 µM in the test with EKVX NSCLC; more than 25 µM in the test with SK-OV-3 ovarian; 4.31 µM in the test with RXF 393 renal. In addition, the GI50 with KM12 colon is 16.3 µM; with K-562 leukemia, 10 µM; in the test with RPMI-8226 leukemia, 20 µM; with BT-549 breast, 5.28 µM. In addition, the TGI with HOP-62 NSCLC is more than 25 µM; with SK-MEL-5 melanoma, more than 25 µM; with NCI-H460 lung it was more than 25 µM; with EKVX NSCLC, more than 25 µM; with SK-OV-3 ovarian, more than 25 µM; in the test with RXF 393 renal, more than 23.5 µM. The TGI with KM12 colon is more than 25 µM; in the test on K-562 leukemia, more than 25 µM; with RPMI-8226 leukemia it was more than 25 µM; in the test on BT-549 breast, 18.2 µM.

For `COc1ccccc1CNCCCN1C(=O)c2ccc3c4c(ccc(c24)C1=O)C(=O)N(CCCNCc1ccccc1OC)C3=O`, the GI50 is 0.192 µM in the test on HOP-62 NSCLC; 0.155 µM with SK-MEL-5 melanoma; 0.167 µM in the test with NCI-H460 lung; 0.168 µM in the test with EKVX NSCLC; 0.352 µM in the test on SK-OV-3 ovarian; 0.142 µM with RXF 393 renal. In addition, the GI50 is 0.116 µM in the test on KM12 colon, 0.265 µM in the test on K-562 leukemia, 0.274 µM in the test on RPMI-8226 leukemia and 0.348 µM with BT-549 breast. In addition, the TGI came out at 0.633 µM in the test with HOP-62 NSCLC; 0.29 µM in the test with SK-MEL-5 melanoma; 0.421 µM with NCI-H460 lung; 0.343 µM in the test with EKVX NSCLC; 1 µM in the test on SK-OV-3 ovarian; 0.281 µM with RXF 393 renal. Further, the TGI in the test with KM12 colon amounted to 0.272 µM; in the test with K-562 leukemia, 0.83 µM; with RPMI-8226 leukemia, 0.799 µM; with BT-549 breast it was 0.895 µM.

`CN(c1ccccc1)c1c2ccccc2nc2[nH]c3ccccc3c12`: the GI50 was 1.96 µM with HOP-62 NSCLC; 1.62 µM with SK-MEL-5 melanoma; 1.16 µM in the test with NCI-H460 lung; 5.04 µM in the test on EKVX NSCLC; 3.75 µM in the test with SK-OV-3 ovarian; 2.11 µM in the test on RXF 393 renal. Moreover, the GI50 in the test with KM12 colon is 2.24 µM; in the test on K-562 leukemia it was 2.41 µM; in the test on RPMI-8226 leukemia, 1.49 µM; with BT-549 breast it was 4.36 µM. Further, the TGI stood at 5.97 µM in the test with HOP-62 NSCLC; 3.56 µM in the test with SK-MEL-5 melanoma; 10.3 µM with NCI-H460 lung; 21 µM with EKVX NSCLC; 14.1 µM with SK-OV-3 ovarian; 38.7 µM with RXF 393 renal. Besides, the TGI in the test with KM12 colon is 7.4 µM; with K-562 leukemia, more than 56.8 µM; in the test on RPMI-8226 leukemia, 3.92 µM; in the test with BT-549 breast it was 13.1 µM.

Turning to `O=C1NC(=O)C2C3C=CC(C12)C1C2C(=O)NC(=O)C2C31` (centres undefined), the GI50 is more than 644 µM in the test with HOP-62 NSCLC; 389 µM in the test on SK-MEL-5 melanoma; 47 µM and 74.4 µM with NCI-H460 lung; 543 µM with EKVX NSCLC; more than 767 µM in the test on SK-OV-3 ovarian; more than 1000 µM with RXF 393 renal. The GI50 in the test on KM12 colon was more than 1000 µM; with K-562 leukemia, 137 µM; in the test with RPMI-8226 leukemia, > 76.6 µM and 577 µM; in the test with BT-549 breast it was 313 µM. Moreover, the TGI with SK-MEL-5 melanoma is 224 µM and > 756 µM; in the test with NCI-H460 lung it was 203 µM and > 1000 µM; in the test with EKVX NSCLC it was 250 µM and > 1000 µM; in the test on SK-OV-3 ovarian, 108 µM and > 1000 µM; in the test on RXF 393 renal it was 250 µM and > 1000 µM; in the test on KM12 colon, 250 µM and > 1000 µM. For the same compound, the TGI in the test on K-562 leukemia was 250 µM and > 1000 µM; in the test with RPMI-8226 leukemia, 203 µM and > 1000 µM; in the test with BT-549 breast it was more than 1000 µM.

For the compound `O=S(=O)(Nc1ccccc1)c1ccc(C2CC3(Cl)C(Cl)=C(Cl)C2(Cl)C3(Cl)Cl)cc1` (centres undefined), the GI50 is 2.52 µM in the test on HOP-62 NSCLC; 1.93 µM in the test on SK-MEL-5 melanoma; 1.96 µM with NCI-H460 lung; 3.02 µM in the test on EKVX NSCLC; 3.45 µM with SK-OV-3 ovarian; 1.79 µM in the test with RXF 393 renal. The GI50 in the test on KM12 colon was 2.15 µM; in the test on K-562 leukemia, 2.51 µM; in the test with RPMI-8226 leukemia it was 2.53 µM; with BT-549 breast it was 2.46 µM. Moreover, the TGI came out at 5.93 µM with HOP-62 NSCLC; 3.74 µM with SK-MEL-5 melanoma; 3.72 µM with NCI-H460 lung; 8.37 µM in the test on EKVX NSCLC; 10.1 µM in the test on SK-OV-3 ovarian; 3.38 µM with RXF 393 renal. In addition, the TGI in the test on KM12 colon turned out to be 4.12 µM; with K-562 leukemia, 9.84 µM; with RPMI-8226 leukemia, 7.28 µM; with BT-549 breast, 5.85 µM.

Regarding `COc1ccc(-n2c(=O)c3ccccc3n(Cc3ccc(C(=O)NO)cc3)c2=O)cc1`, the GI50 with HOP-62 NSCLC was 2.29 µM; in the test with SK-MEL-5 melanoma, 1.73 µM; in the test on NCI-H460 lung, 2.58 µM; in the test on EKVX NSCLC, 1.92 µM; in the test with SK-OV-3 ovarian, 2.45 µM; in the test with RXF 393 renal, 1.49 µM. The GI50 in the test on KM12 colon is 1.77 µM; in the test on K-562 leukemia, 3.11 µM; in the test with RPMI-8226 leukemia it was 2.42 µM; in the test on BT-549 breast, 2.08 µM. In addition, the TGI turned out to be 6.19 µM in the test with HOP-62 NSCLC; 3.45 µM in the test with SK-MEL-5 melanoma; 12.9 µM with NCI-H460 lung; 4.31 µM in the test on EKVX NSCLC; 6.69 µM in the test on SK-OV-3 ovarian; 3.34 µM in the test with RXF 393 renal. Also, the TGI was 4.08 µM in the test on KM12 colon, more than 100 µM in the test with K-562 leukemia, 12.6 µM in the test on RPMI-8226 leukemia and 4.91 µM in the test on BT-549 breast.

As to `O=C1[C@H](Cc2ccc(O)cc2)N2C(=O)CCN(C(=O)NCc3ccccc3)[C@H]2CN1Cc1cccc2ccccc12`, the GI50 in the test on HOP-62 NSCLC is 3.22 µM; in the test on SK-MEL-5 melanoma it was 2.28 µM; with NCI-H460 lung, 1.73 µM; in the test with EKVX NSCLC, 3.81 µM; with SK-OV-3 ovarian, 2.74 µM; in the test with RXF 393 renal it was 3.8 µM. The GI50 with KM12 colon was 3.1 µM; with K-562 leukemia, 2.06 µM; with RPMI-8226 leukemia, 3.66 µM; in the test with BT-549 breast, 3.01 µM. Besides, the TGI with HOP-62 NSCLC was 19.1 µM; with SK-MEL-5 melanoma it was 11.4 µM; with NCI-H460 lung, 7.23 µM; in the test on EKVX NSCLC, more than 100 µM; with SK-OV-3 ovarian, 8.14 µM; in the test on RXF 393 renal, 14.5 µM. The TGI in the test on KM12 colon is 15.3 µM; with K-562 leukemia it was more than 100 µM; in the test with RPMI-8226 leukemia it was 23.1 µM; in the test with BT-549 breast, 22.6 µM.
